# Data taken from ChEMBL document CHEMBL3046407, “Toxicity of monoterpenes against larvae and adults of Colorado potato beetle, Leptinotarsa decemlineata Say (Coleoptera: Chrysomelidae)” (2007).
# Columns and labels:
# Format in all cases: functional
# [1] = tested on: Leptinotarsa decemlineata; experiment: Insecticidal activity against third-instar larval stage of Leptinotarsa decemlineata infested potato leaves assessed as mortality at 20 ul after 24 hr relative to control
# [2] = tested on: Leptinotarsa decemlineata; experiment: Insecticidal activity against adult Leptinotarsa decemlineata infested potato leaves assessed as mortality at 20 ul after 48 hr relative to control
# [3] = tested on: Leptinotarsa decemlineata; experiment: Insecticidal activity against second-instar larval stage of Leptinotarsa decemlineata infested potato leaves assessed as mortality at 10 ul after 12 hr relative to control
# [4] = tested on: Leptinotarsa decemlineata; experiment: Insecticidal activity against third-instar larval stage of Leptinotarsa decemlineata infested potato leaves assessed as mortality at 20 ul after 12 hr relative to control
# [5] = tested on: Leptinotarsa decemlineata; experiment: Insecticidal activity against first-instar larval stage of Leptinotarsa decemlineata infested potato leaves assessed as mortality at 20 ul after 24 hr relative to control
# [6] = tested on: Leptinotarsa decemlineata; experiment: Insecticidal activity against adult Leptinotarsa decemlineata infested potato leaves assessed as mortality at 20 ul after 12 hr relative to control
# [7] = tested on: Leptinotarsa decemlineata; experiment: Insecticidal activity against adult Leptinotarsa decemlineata infested potato leaves assessed as mortality at 10 ul after 12 hr relative to control
# [8] = tested on: Leptinotarsa decemlineata; experiment: Insecticidal activity against first-instar larval stage of Leptinotarsa decemlineata infested potato leaves assessed as mortality at 10 ul after 24 hr relative to control
# [9] = tested on: Leptinotarsa decemlineata; experiment: Insecticidal activity against second-instar larval stage of Leptinotarsa decemlineata infested potato leaves assessed as mortality at 20 ul after 48 hr (reference value: […] +/- 3.3%)
# [10] = tested on: Leptinotarsa decemlineata; experiment: Insecticidal activity against third-instar larval stage of Leptinotarsa decemlineata infested potato leaves assessed as mortality at 10 ul after 12 hr relative to control
# [11] = tested on: Leptinotarsa decemlineata; experiment: Insecticidal activity against second-instar larval stage of Leptinotarsa decemlineata infested potato leaves assessed as mortality at 20 ul after 24 hr (reference value: […] +/- 3.3%)
# [12] = tested on: Leptinotarsa decemlineata; experiment: Insecticidal activity against adult Leptinotarsa decemlineata infested potato leaves assessed as mortality at 20 ul after 96 hr relative to control
# [13] = tested on: Leptinotarsa decemlineata; experiment: Insecticidal activity against second-instar larval stage of Leptinotarsa decemlineata infested potato leaves assessed as mortality at 10 ul after 24 hr (reference value: […] +/- 3.3%)
# [14] = tested on: Leptinotarsa decemlineata; experiment: Insecticidal activity against second-instar larval stage of Leptinotarsa decemlineata infested potato leaves assessed as mortality at 20 ul after 96 hr (reference value: […] +/- 3.3%)
# [15] = tested on: Leptinotarsa decemlineata; experiment: Insecticidal activity against first-instar larval stage of Leptinotarsa decemlineata infested potato leaves assessed as mortality at 20 ul after 12 hr relative to control
# [16] = tested on: Leptinotarsa decemlineata; experiment: Insecticidal activity against third-instar larval stage of Leptinotarsa decemlineata infested potato leaves assessed as mortality at 20 ul after 96 hr (reference value: […] +/- 3.3%)
# [17] = tested on: Leptinotarsa decemlineata; experiment: Insecticidal activity against second-instar larval stage of Leptinotarsa decemlineata infested potato leaves assessed as mortality at 20 ul after 12 hr relative to control
# [18] = tested on: Leptinotarsa decemlineata; experiment: Insecticidal activity against third-instar larval stage of Leptinotarsa decemlineata infested potato leaves assessed as mortality at 10 ul after 24 hr relative to control
# [19] = tested on: Leptinotarsa decemlineata; experiment: Insecticidal activity against first-instar larval stage of Leptinotarsa decemlineata infested potato leaves assessed as mortality at 20 ul after 96 hr relative to control
# [20] = tested on: Leptinotarsa decemlineata; experiment: Insecticidal activity against first-instar larval stage of Leptinotarsa decemlineata infested potato leaves assessed as mortality at 20 ul after 48 hr relative to control
# [21] = tested on: Leptinotarsa decemlineata; experiment: Insecticidal activity against adult Leptinotarsa decemlineata infested potato leaves assessed as mortality at 10 ul after 24 hr relative to control
# [22] = tested on: Leptinotarsa decemlineata; experiment: Insecticidal activity against third-instar larval stage of Leptinotarsa decemlineata infested potato leaves assessed as mortality at 20 ul after 48 hr (reference value: […] +/- 3.3%)
# [23] = tested on: Leptinotarsa decemlineata; experiment: Insecticidal activity against second-instar larval stage of Leptinotarsa decemlineata infested potato leaves assessed as mortality at 10 ul after 96 hr (reference value: […] +/- 3.3%)
# [24] = tested on: Leptinotarsa decemlineata; experiment: Insecticidal activity against first-instar larval stage of Leptinotarsa decemlineata infested potato leaves assessed as mortality at 10 ul after 96 hr relative to control
# [25] = tested on: Leptinotarsa decemlineata; experiment: Insecticidal activity against third-instar larval stage of Leptinotarsa decemlineata infested potato leaves assessed as mortality at 10 ul after 96 hr (reference value: […] +/- 3.3%)
# [26] = tested on: Leptinotarsa decemlineata; experiment: Insecticidal activity against third-instar larval stage of Leptinotarsa decemlineata infested potato leaves assessed as mortality at 10 ul after 48 hr (reference value: […] +/- 3.3%)
# [27] = tested on: Leptinotarsa decemlineata; experiment: Insecticidal activity against second-instar larval stage of Leptinotarsa decemlineata infested potato leaves assessed as mortality at 10 ul after 48 hr (reference value: […] +/- 3.3%)
# [28] = tested on: Leptinotarsa decemlineata; experiment: Insecticidal activity against adult Leptinotarsa decemlineata infested potato leaves assessed as mortality at 10 ul after 96 hr relative to control
# [29] = tested on: Leptinotarsa decemlineata; experiment: Insecticidal activity against first-instar larval stage of Leptinotarsa decemlineata infested potato leaves assessed as mortality at 10 ul after 48 hr relative to control
# [30] = tested on: Leptinotarsa decemlineata; experiment: Insecticidal activity against first-instar larval stage of Leptinotarsa decemlineata infested potato leaves assessed as mortality at 10 ul after 12 hr relative to control
# [31] = tested on: Leptinotarsa decemlineata; experiment: Insecticidal activity against adult Leptinotarsa decemlineata infested potato leaves assessed as mortality at 10 ul after 48 hr relative to control
# [32] = tested on: Leptinotarsa decemlineata; experiment: Insecticidal activity against adult Leptinotarsa decemlineata infested potato leaves assessed as mortality at 20 ul after 24 hr relative to control
SMILES,mortality [1] [%],mortality [2] [%],mortality [3] [%],mortality [4] [%],mortality [5] [%],mortality [6] [%],mortality [7] [%],mortality [8] [%],mortality [9] [%],mortality [10] [%],mortality [11] [%],mortality [12] [%],mortality [13] [%],mortality [14] [%],mortality [15] [%],mortality [16] [%],mortality [17] [%],mortality [18] [%],mortality [19] [%],mortality [20] [%],other results
CC(C)=CCC[C@@H](C)CC=O [CITRONELLAL],20,80,20,10,76.7,16.7,6.7,43.3,93.3,20,80,86.7,53.3,93.3,33.3,33.3,23.3,20,100,90,mortality [21]: 90%; mortality [22]: 26.7%; mortality [23]: 80%; mortality [24]: 86.7%; mortality [25]: 26.7%; mortality [26]: 20%; mortality [27]: 76.7%; mortality [28]: 100%; mortality [29]: 76.7%; mortality [30]: 6.7%; mortality [31]: 100%
CC1=CCC(O)(C(C)C)CC1 (stereo unspecified) [TERPINEOL],23.3,80,33.3,3.3,86.7,16.7,3.3,40,100,6.7,100,100,83.3,100,40,40,60,16.7,100,100,mortality [32]: 43.3%; mortality [21]: 76.7%; mortality [22]: 26.7%; mortality [23]: 100%; mortality [24]: 100%; mortality [25]: 23.3%; mortality [26]: 23.3%; mortality [27]: 100%; mortality [28]: 100%; mortality [29]: 73.3%; mortality [30]: 0%; mortality [31]: 93.3%
CC(C)=CCC/C(C)=C\CO [NEROL],16.7,10,13.3,16.7,16.7,6.7,13.3,16.7,46.7,26.7,16.7,13.3,16.7,53.3,10,46.7,10,56.7,56.7,46.7,mortality [32]: 6.7%; mortality [21]: 16.7%; mortality [22]: 30%; mortality [23]: 56.7%; mortality [24]: 56.7%; mortality [25]: 80%; mortality [26]: 73.3%; mortality [27]: 36.7%; mortality [28]: 23.3%; mortality [29]: 36.7%; mortality [30]: 13.3%; mortality [31]: 20%
C=CC(=C)CCC=C(C)C [MYRCENE],70,96.7,56.7,36.7,90,73.3,46.7,80,100,26.7,90,100,93.3,100,36.7,76.7,73.3,53.3,100,100,mortality [32]: 90%; mortality [21]: 93.3%; mortality [22]: 73.3%; mortality [23]: 93.3%; mortality [24]: 93.3%; mortality [25]: 60%; mortality [26]: 56.7%; mortality [27]: 93.3%; mortality [28]: 100%; mortality [29]: 93.3%; mortality [30]: 20%; mortality [31]: 100%
C=CC(C)(O)CCC=C(C)C (stereo unspecified) [LINALOOL],33.3,100,20,6.7,93.3,30,16.7,53.3,100,3.3,93.3,100,73.3,100,40,40,36.7,13.3,100,100,mortality [32]: 73.3%; mortality [21]: 73.3%; mortality [22]: 36.7%; mortality [23]: 100%; mortality [24]: 100%; mortality [25]: 23.3%; mortality [26]: 20%; mortality [27]: 76.7%; mortality [28]: 90%; mortality [29]: 63.3%; mortality [30]: 26.7%; mortality [31]: 83.3%
C=CC(C)(CCC=C(C)C)OC(C)=O (stereo unspecified) [LINALYL ACETATE],73.3,63.3,20,30,63.3,10,0,30,93.3,23.3,63.3,70,36.7,93.3,26.7,83.3,30,30,69.3,93.3,mortality [32]: 23.3%; mortality [21]: 0%; mortality [22]: 76.7%; mortality [23]: 86.7%; mortality [24]: 86.7%; mortality [25]: 33.3%; mortality [27]: 80%; mortality [28]: 23.3%; mortality [29]: 70%; mortality [30]: 16.7%; mortality [31]: 16.7%
CC1=CCC2CC1C2(C)C (stereo not drawn) [ALPHA-PINENE],16.7,100,26.7,13.3,43.3,96.7,100,50,80,3.3,70,100,50,86.7,13.3,36.7,20,3.3,66.7,56.7,mortality [32]: 100%; mortality [21]: 100%; mortality [22]: 30%; mortality [23]: 66.7%; mortality [24]: 66.7%; mortality [25]: 6.7%; mortality [27]: 63.3%; mortality [28]: 100%; mortality [29]: 63.3%; mortality [30]: 26.7%; mortality [31]: 100%
